Source: patent EP0951284B1, “[…] DERIVATIVES” (priority 1996, dated 1998)
Counter-ions that a name gives are not always drawn.

System: mice
Test: Closed head injury (CHI) in mice: motor function, neurological severity score (NSS)
Format: in vivo
Conditions: sc at ED50 for acetylcholinesterase inhibition, once 15 min after CHI
Description: The procedure for closed head injury followed was as described for rats in Shohami et al. (J. Neurotrauma (1993) 10(2) 109-119) with changes as described.
Animals: Male Sabra mice (Hebrew University strain) weighing 34-40g were used. They were housed in groups of 10 per cage, in a 12hr:12hr light:dark cycle. Food and water were provided ad libitum.
Trauma was induced under ether anesthesia. A longitudinal incision was performed in the skin covering the skull and the skin retracted to expose the skull. The head was fixed manually at the lower plane of the impact apparatus. A weight of 333g was delivered by an electric device from a height of 3cm to the left hemisphere, 1-2mm lateral to the midline in the midcoronal plane.
One point was awarded for the lack of a tested reflex or for the inability to perform the tasks outline in the Table. The maximal score that can be reached at 1 hour post-CHI is 25 points and 21 at later times. The difference in NSS at 1hr and at any other time reflects the recovery, and is referred to as NSS. An NSS score of 15-19 at 1hr denotes severe injury, 11-14 moderate injury and less than 10 mild injury.

## C#CCNC(C)Cc1cccc(OC(=O)N(C)CC)c1 (stereo not drawn) [Compound 17, 3-(N-Me,N-Etcarbamyloxy)α-methyl, N-propargyl phenethylamine.HCl]
Saline 4.75±0.17
  ΔNSS, 24 hr post-CHI: 5.58±0.38
Saline 5.83±0.36
  ΔNSS, 7 days post-CHI: 6.92±0.36
Saline 5.96±0.4
  ΔNSS, 14 days post-CHI: 7.83±0.53
